Experimental data as given in ChEMBL document CHEMBL5338731, “Development of Neuropeptide Hemokinin-1 Analogues with Antimicrobial and Wound-Healing Activity” (J Med Chem, 2023).
Calls of active or inactive are those of the source. The rule behind the calls is not given here.

How the values were obtained:
Cell membrane [1] = experiment: Induction of cell membrane disruption in Staphylococcus aureus ATCC 25923 assessed as coagulation of cytoplasmic elements at 2 times MIC incubated for 2 hrs by TEM analysis; format: subcellular
Cell membrane [2] = experiment: Induction of cell membrane disruption in Staphylococcus aureus ATCC 25923 assessed as sparse cytoplasmic distribution at 2 times MIC incubated for 2 hrs by TEM analysis; format: subcellular
Staphylococcus aureus [3] = experiment: Antimicrobial activity against Staphylococcus aureus ATCC 29213 assessed as inhibition of bacterial growth incubated for 18 hrs by serial dilution method; format: functional
NIH3T3 [4] = experiment: Induction of cell proliferation in mouse NIH3T3 cells assessed as increase in cell viability at 0.1 to 1000 nM incubated for 48 hrs by MTT assay; format: functional, cell-based; settings: dose 0.1-1000 nM
Lipopolysaccharide (LPS) = experiment: Binding affinity to Escherichia coli O111:B4 LPS assessed as dissociation constant by ITC assay
Escherichia coli [5] = experiment: Bactericidal activity against Escherichia coli ATCC 25922 assessed as reduction in colony forming unit at 1 times MIC and measured after 120 mins by time-kill kinetics assay; format: functional, organism-based
Pseudomonas aeruginosa [6] = experiment: Antimicrobial activity against Pseudomonas aeruginosa PAO1 assessed as inhibition of bacterial growth incubated for 18 hrs by serial dilution method; format: functional
Cell membrane [7] = experiment: Induction of cell membrane disruption in Escherichia coli ATCC 25922 assessed as distinct wrinkling in cell morphology at 2 times MIC incubated for 2 hrs by SEM analysis; format: subcellular
NIH3T3 [8] = experiment: Induction of cell migration in mouse NIH3T3 cells assessed as […] at 0.1 to 1000 nM incubated for 48 hrs by phase-contrast microscopy based scratch wound healing assay; format: functional; settings: dose 0.1-1000 nM
HEK293 [9] = experiment: Induction of cell proliferation in human HEK293 cells expressing NK1R assessed as increase in cell viability at 0.1 to 1000 nM incubated for 48 hrs by MTT assay; format: functional, cell-based; settings: dose 0.1-1000 nM
Cell membrane [10] = experiment: Induction of cell membrane disruption in Escherichia coli ATCC 25922 assessed as membrane blebbing at 2 times MIC incubated for 2 hrs by SEM analysis; format: subcellular
Cell membrane [11] = experiment: Induction of cell membrane disruption in Staphylococcus aureus ATCC 25923 assessed as membrane blebbing at 2 times MIC incubated for 2 hrs by SEM analysis; format: subcellular
[12] = Cytotoxicity against mouse RAW264.7 cells assessed as cell survival rate at 16 uM incubated for 24 hrs by MTT assay; format: toxicity, cell-based; settings: read-out: Survival
Cell membrane [13] = experiment: Induction of inner cell membrane permeabilization in Escherichia coli ML-35 assessed as increase in absorbance at 1 to 8 times of MIC and measured every 5mins for 90 mins by ONPG beta-galactosidase based assay; format: subcellular
RAW264.7 [14] = experiment: Anti-inflammatory activity against LPS-stimulated mouse RAW264.7 cells assessed as reduction in IL-1beta mRNA expression level at 1 to 16 uM incubated for 4 hrs by RT-qPCR analysis; format: functional, cell-based; settings: dose 1-16 µM
Bacillus subtilis = experiment: Antimicrobial activity against Bacillus subtilis ATCC 23857 assessed as inhibition of bacterial growth incubated for 18 hrs by serial dilution method; format: functional
RAW264.7 [15] = experiment: Anti-inflammatory activity against LPS-stimulated mouse RAW264.7 cells assessed as reduction in IL-6 mRNA expression level at 1 to 16 uM incubated for 4 hrs by RT-qPCR analysis; format: functional, cell-based; settings: dose 1-16 µM
Escherichia coli [16] = experiment: Bactericidal activity against Escherichia coli ATCC 25922 assessed as reduction in colony forming unit at 2 times MIC and measured after 90 mins by time-kill kinetics assay; format: functional, organism-based
Mus musculus [17] = species: Mus musculus; experiment: Wound healing activity in Kunming mouse full-thickness excisional wound model assessed as increase in wound closure at 0.1 to 10 uM, TOP BID and measured upto 8 days by image analysis; format: functional, organism-based; settings: dose 0.1-10 µM, time <= 8.0 day
Mus musculus [18] = species: Mus musculus; experiment: Wound healing activity in Kunming mouse full-thickness excisional wound model with splints assessed as increase in wound healing rate at 1 10^-7M, TOP BID and measured upto 8 days by image analysis; format: functional, organism-based; settings: time <= 8.0 day
Staphylococcus aureus [19] = experiment: Bactericidal activity against Staphylococcus aureus ATCC 25923 assessed as reduction in colony forming unit at 1 to 4 times MIC and measured after 120 mins by time-kill kinetics assay; format: functional, organism-based
Cell membrane [20] = experiment: Induction of cell membrane disruption in Escherichia coli ATCC 25922 assessed as PI uptake at 2 times MIC incubated for 1 hrs by PI staining based confocal laser scanning microscopy; format: subcellular
Cell membrane [21] = experiment: Induction of cell membrane disruption in Escherichia coli ATCC 25922 assessed as separation between outer membrane and cytoplasmic membrane at 2 times MIC incubated for 2 hrs by TEM analysis; format: subcellular
Cell membrane [22] = experiment: Induction of cell membrane disruption in Escherichia coli ATCC 25922 assessed as coagulation of cytoplasmic elements at 2 times MIC incubated for 2 hrs by TEM analysis; format: subcellular
Mus musculus [23] = species: Mus musculus; experiment: Antimicrobial activity in Staphylococcus aureus ATCC 25923 infected Kunming mouse excisional wound model assessed as decrease in bacterial growth at 1 10^-4M, TOP BID and measured upto 8 days by image analysis; format: functional, organism-based; settings: time <= 8.0 day
Staphylococcus aureus [24] = experiment: Bactericidal activity against Staphylococcus aureus ATCC 25923 assessed as reduction in colony forming unit at 2 times MIC and measured after 120 mins by time-kill kinetics assay; format: functional, organism-based
RAW264.7 [25] = experiment: Anti-inflammatory activity in LPS-stimulated mouse RAW264.7 cells assessed as inhibition of NO production at 16 uM incubated for 24 hrs by Griess reagent based assay; format: functional, cell-based
Cell membrane [26] = experiment: Induction of cell membrane disruption in Staphylococcus aureus ATCC 25923 assessed as separation between […] at 2 times MIC incubated for 2 hrs by TEM analysis; format: subcellular
Escherichia coli [27] = experiment: Antimicrobial activity against Escherichia coli ML-35 assessed as inhibition of bacterial growth incubated for 18 hrs by serial dilution method; format: functional
Cell membrane [28] = experiment: Induction of cell membrane disruption in Escherichia coli ATCC 25922 assessed as sparse cytoplasmic distribution at 2 times MIC incubated for 2 hrs by TEM analysis; format: subcellular
Pseudomonas aeruginosa [29] = experiment: Antimicrobial activity against Pseudomonas aeruginosa ATCC 27853 assessed as inhibition of bacterial growth incubated for 18 hrs by serial dilution method; format: functional
HEK293 [30] = experiment: Induction of cell proliferation in human HEK293 cells assessed as increase in cell viability at 0.1 to 1000 nM incubated for 48 hrs by MTT assay; format: functional, cell-based; settings: dose 0.1-1000 nM
Staphylococcus aureus [31] = experiment: Antimicrobial activity against Staphylococcus aureus ATCC 25923 assessed as inhibition of bacterial growth incubated for 18 hrs by serial dilution method; format: functional
Cell membrane [32] = experiment: Induction of cell membrane disruption in Staphylococcus aureus ATCC 25923 assessed as distinct wrinkling in cell morphology at 2 times MIC incubated for 2 hrs by SEM analysis; format: subcellular
Escherichia coli [33] = experiment: Bactericidal activity against Escherichia coli ATCC 25922 assessed as reduction in colony forming unit at 4 times MIC and measured after 60 mins by time-kill kinetics assay; format: functional, organism-based
Mus musculus [34] = species: Mus musculus; experiment: Wound healing activity in Kunming mouse full-thickness excisional wound model assessed as increase in wound closure at 1 10^-7M, TOP BID and measured upto 8 days by image analysis; format: functional, organism-based; settings: time <= 8.0 day
[35] = Hemolytic activity in mouse erythrocytes assessed as haemoglobin release at 400 uM incubated for 1 hrs by microplate reader method; format: toxicity, cell-based, Erythrocyte; settings: read-out: Activity
Escherichia coli [36] = experiment: Antimicrobial activity against Escherichia coli ATCC 25922 assessed as inhibition of bacterial growth incubated for 18 hrs by serial dilution method; format: functional
Mus musculus [37] = species: Mus musculus; experiment: Wound healing activity in Staphylococcus aureus ATCC 25923 infected Kunming mouse excisional wound model assessed as increase in wound repair at 1 10^-4M, TOP BID and measured upto 8 days by image analysis; format: functional, organism-based; settings: time <= 8.0 day
Mus musculus [38] = species: Mus musculus; experiment: Wound healing activity in STZ-induced Kunming mouse diabetic wound model assessed as increase in wound repair at 1 10^-7M, TOP BID and measured upto 8 days by image analysis; format: functional, organism-based; settings: time <= 8.0 day
Cell membrane [39] = experiment: Induction of cell membrane disruption in Staphylococcus aureus ATCC 25923 assessed as PI uptake at 2 times MIC incubated for 1 hrs by PI staining based confocal laser scanning microscopy; format: subcellular
RAW264.7 [40] = experiment: Anti-inflammatory activity against LPS-stimulated mouse RAW264.7 cells assessed as reduction in TNF-alpha mRNA expression level at 1 to 16 uM incubated for 4 hrs by RT-qPCR analysis; format: functional, cell-based; settings: dose 1-16 µM
Cell membrane [41] = experiment: Induction of outer cell membrane permeability in Escherichia coli ATCC 25922 assessed as increase fluoresence intensity at 1 to 8 times of MIC and measured every mins for 15 mins by NPN uptake assay; format: subcellular
RAW264.7 [42] = experiment: Cytotoxicity against mouse RAW264.7 cells assessed as reduction in cell viability at 1 to 16 uM incubated for 24 hrs by MTT assay; format: toxicity, cell-based; settings: raw264.7, 24 h, dose 1-16 µM

With H-LKKWLKKWTLKASQFFGLM-NH2 the Activity (Cell membrane [1]) was “Active”, the Activity (Cell membrane [2]) was “Active” and the MIC (Staphylococcus aureus [3]) was 4 µM. The Activity (NIH3T3 [4]) was “Active”, the Kd (Lipopolysaccharide (LPS)) was 13.4 µM and the Activity (Escherichia coli [5]) was “Active”. For the same substance, the MIC (Pseudomonas aeruginosa [6]) was 2 µM, the Activity (Cell membrane [7]) was “Active” and the Activity (NIH3T3 [8]) was “Active”. The Activity (HEK293 [9]) was “Active”, the Activity (Cell membrane [10]) was “Active” and the Activity (Cell membrane [11]) was “Active”. For the same substance, the viability at 24 h, 16 µM [12] was > 90%, the Activity (Cell membrane [13]) was “Active” and the Activity (RAW264.7 [14]) was “Dose-Dependent Effect”. The MIC (Bacillus subtilis) was 2 µM, the Activity (RAW264.7 [15]) was “Dose-Dependent Effect” and the Activity (Escherichia coli [16]) was “Active”. For the same substance, the Activity (Mus musculus [17]) was “inactive”, the Activity (Mus musculus [18]) was “Active” and the Activity (Staphylococcus aureus [19]) was “Active”. The Activity (Cell membrane [20]) was “Active”, the Activity (Cell membrane [21]) was “Active” and the Activity (Cell membrane [22]) was “Active”. For the same substance, the Activity (Mus musculus [23]) was “Active”, the Activity (Staphylococcus aureus [24]) was “Active” and the inhibition (RAW264.7 [25]) was “Active”. For the same substance, the Activity (Cell membrane [26]) was “Active”, the MIC (Escherichia coli [27]) was 2 µM and the Activity (Cell membrane [28]) was “Active”. For the same substance, the MIC (Pseudomonas aeruginosa [29]) was 2 µM, the Activity (HEK293 [30]) was “inactive” and the MIC (Staphylococcus aureus [31]) was 2 µM. For the same substance, the Activity (Cell membrane [32]) was “Active”, the Activity (Escherichia coli [33]) was “Active” and the Activity (Mus musculus [34]) was “Active”. The hemolysis at 1 h, 400 µM [35] was 19.5%, the MIC (Escherichia coli [36]) was 2 µM and the Activity (Mus musculus [37]) was “inactive”. The Activity (Mus musculus [38]) was “Active”, the Activity (Cell membrane [39]) was “Active” and the Activity (RAW264.7 [40]) was “Dose-Dependent Effect”. The Activity (Cell membrane [41]) was “Dose-Dependent Effect”.
For H-LKKWLKKWTPKASQFFGLM-NH2, the MIC (Staphylococcus aureus [3]) was 32 µM, the Activity (NIH3T3 [4]) was “Active” and the Kd (Lipopolysaccharide (LPS)) was 311 µM. The MIC (Pseudomonas aeruginosa [6]) was 4 µM, the Activity (NIH3T3 [8]) was “Active” and the Activity (HEK293 [9]) was “Active”. The viability at 24 h, 16 µM [12] was > 90%, the Activity (RAW264.7 [14]) was “Dose-Dependent Effect” and the MIC (Bacillus subtilis) was 2 µM. The Activity (RAW264.7 [15]) was “Dose-Dependent Effect”, the Activity (Mus musculus [18]) was “Active” and the inhibition (RAW264.7 [25]) was “Active”. For the same substance, the MIC (Escherichia coli [27]) was 2 µM, the MIC (Pseudomonas aeruginosa [29]) was 2 µM and the Activity (HEK293 [30]) was “inactive”. For the same substance, the MIC (Staphylococcus aureus [31]) was 32 µM, the Activity (Mus musculus [34]) was “Active” and the hemolysis at 1 h, 400 µM [35] was 2.94%. For the same substance, the MIC (Escherichia coli [36]) was 2 µM and the Activity (RAW264.7 [40]) was “Dose-Dependent Effect”.
With H-LKKWTGKASQFFGLM-NH2 the MIC (Staphylococcus aureus [3]) was > 128 µM, the MIC (Pseudomonas aeruginosa [6]) was 128 µM and the MIC (Bacillus subtilis) was 64 µM. The inhibition (RAW264.7 [25]) was “inactive”, the Activity (RAW264.7 [42]) was “Non-Toxic” and the MIC (Escherichia coli [27]) was 64 µM. The MIC (Pseudomonas aeruginosa [29]) was 128 µM, the MIC (Staphylococcus aureus [31]) was > 128 µM and the Activity (Mus musculus [34]) was “Active”. For the same substance, the hemolysis at 1 h, 400 µM [35] was 1.01% and the MIC (Escherichia coli [36]) was 64 µM.
For H-LKKWTLKASQFFGLM-NH2, the MIC (Staphylococcus aureus [3]) was 128 µM, the MIC (Pseudomonas aeruginosa [6]) was 64 µM and the viability at 24 h, 16 µM [12] was > 90%. For the same substance, the MIC (Bacillus subtilis) was 16 µM, the inhibition (RAW264.7 [25]) was “Active” and the MIC (Escherichia coli [27]) was 16 µM. For the same substance, the MIC (Pseudomonas aeruginosa [29]) was 64 µM, the MIC (Staphylococcus aureus [31]) was > 128 µM and the Activity (Mus musculus [34]) was “Active”. For the same substance, the hemolysis at 1 h, 400 µM [35] was 11.2% and the MIC (Escherichia coli [36]) was 16 µM.
